Experimental data from PMC4809600, “The Influence of Chronic Wound Extracts on Inflammatory Cytokine and Histatin Stability” (PLoS ONE, 2016).

Legend:
[1] = Stability in chronic wound extracts (CWE), capillary zone electrophoresis; assay type: in vitro ADME, human; details: 37°C, 96 h, CZE; for Starting material remaining intact after 96 h in CWE: 1 mg/ml in PBS mixed 1:1 with CWE (1 mg/ml protein, pools of 5 donors), 0 h = 100%, mean of 3 independent experiments; for Degradation in CWE in 96 h: incubation with chronic wound extracts
Description: Debridement tissue was obtained from chronic ulcers of 15 patients with therapy resistant (arterio-venous) leg ulcers, according to procedures described earlier. In brief, moist, easily removable debridement material, essentially blood free, was collected from the ulcer surface and divided equally into two different solutions: (i) PBS (B. Braun, Melsungen, Germany), (ii) PBS with protease inhibitor cocktail (PIC) (1:100; v/v) (Sigma-Aldrich, Steinheim, Germany). The mixtures were gently shaken for 1 h at 4°C to elute proteins and centrifuged; the supernatants were stored at -80°C. Total protein content of the supernatant was measured using the BioRad Protein Assay (BioRad Laboratories, Hercules, California, USA) essentially as described by the supplier. Samples were diluted to 1 mg/ml protein and extracts of five different donors were pooled; three different pools of five donors were used in all experiments. The samples are referred to as chronic wound extracts (CWE).
To determine the stability of the different peptides in CWE, histatins and cytokines were dissolved in PBS at 1 mg/ml. Histatins and cytokines were incubated in a 1:1 ratio with (i) PBS, (ii) CWE in PBS, or (iii) CWE in PBS containing PIC, in a total volume of 25 μl. Imidazole (Sigma-Aldrich) was added as an internal standard, with a final concentration of 100 μg/ml. The mixtures were incubated at 37°C, and samples were taken at 0, 24, 48, 72 and 96 h. For histatins containing mixtures, additional samples were taken after 2, 4, 8 and 16 h of incubation.
The samples were analyzed with a BioFocus 2000 capillary zone electrophoresis system (Bio-Rad Laboratories, Hercules, CA, USA) equipped with an uncoated fused-silica capillary of internal diameter 50 μm and a length of 24 cm. Samples were loaded by pressure injection (5 psi/sec). Separation was performed at 10 kV (cathode at the detector side) at 20°C using 0.1 M phosphate buffer (pH 2.5) as electrolyte and monitored continuously at 200 nm. Peaks were quantified with the BioFocus Integrator software. In order to quantify the percentage of intact peptides remaining after incubation with CWE, the ratios of histatins, rhIL-6 or rhCXCL8 to internal standard was set at 100% at 0h, and the ratios at the other incubation time points were related to this.

[2] = tested on: dermal fibroblasts; experiment: Fibroblast wound healing scratch assay (migration); assay type: cell-based, human; details: serum-free medium, histatins 5 μM, rhIL-6 125 ng/ml, rhCXCL8 250 ng/ml, (E0-E96)/(U0-U96), unexposed = 1; for Migration of dermal fibroblasts in scratch assay, 8 h exposure: 8 h exposure then 88 h without, read at 96 h; for Migration of dermal fibroblasts in scratch assay, 96 h exposure: continuous 96 h exposure
Procedure: Dermal fibroblasts were isolated from healthy human abdominal skin from patients undergoing corrective abdominal plastic surgery. After removal of all adipose tissue, the skin was washed in PBS and incubated overnight on dispase II (Roche, Mannheim, Germany) at 4°C. The next day, epidermis was removed and discarded and the dermis was incubated in collagenase type II (Gibco, Life Technologies, Grand Island, USA)/dispase II in Hanks balanced salt solution (HBSS) (Gibco) at 37°C for 2–3 h. Fibroblast medium consisting of DMEM (Lonza, Verviers, Belgium) containing 1% ultroserG (UG) (Biosepra, Cergy-Saint-Christopher, France) and 1% penicillin-streptomycin (P/S) (Gibco) was added and the solution was passed through an 100 μm and 40 μm cell strainer (Becton Dickinson Falcon, Erembodegem, Belgium). A single cell suspension was seeded at ± 3.5 x 10^4 cells cm^2 and further cultured in fibroblast medium. Medium was changed twice a week and cultures were passaged when 90% confluent using 0.5mM EDTA/0.05% trypsin (Gibco). The cells were maintained at 37°C in a humidified atmosphere containing 5% CO2 and used for experiments at passage 3.
A wound healing scratch assay was performed to determine the effect of histatins, rhIL-6 and rhCXCL8 on fibroblast migration. Confluent monolayers of fibroblasts in a 48-well plate (Costar, Corning Incorporated, New York, USA) were incubated with serum-free medium (DMEM containing 1% P/S and 0.1% bovine serum albumin (Sigma-Aldrich)) for 96 h to ensure minimum spontaneous migration. Next, a scratch was drawn with a disposable plastic pipette tip. Cultures were exposed to Hst1, cHst1, Hst2 and mad-Hst1 (all used at a concentration of 5μM), rhIL-6 (125 ng/ml), rhCXCL8 (250 ng/ml) and vehicle (H2O) in serum free medium. Two experimental set-ups were studied: i) cells were exposed only during the first 8 h to histatins and cytokines and then transferred to vehicle supplemented medium for an additional 88 h; or ii) cells were exposed to histatins and cytokines during the entire 96 h study period. Phase contrast micrographs were taken directly after drawing the scratch and after four days (96 h) of exposure. Data were analyzed using an image processing algorithm that has been described in detail in our previous work. The area of the scratch covered by migrating fibroblasts was determined using the following equation: (E0-E96)/(U0-U96), in which: E = exposure to a condition (IL-6, CXCL8 and histatins); U = unexposed (serum-free medium); E0 and U0 = area of the scratch at T = 0 h; E96 and U96 = area of the scratch (not covered with cells) after 96 h. In this way, in each exposed group (IL-6, CXCL8, histatins) the resurfaced area at 96 h is compared to its own 0 h time point and then set relative to the unexposed group (serum-free medium).

[3] = experiment 1, average of four replicates
[4] = experiment 2, average of four replicates
[5] = experiment 3, average of four replicates
[6] = experiment 4, average of four replicates

Substance | Starting material remaining intact after 96 h in CWE [1] | Degradation in CWE in 96 h [1] | Migration of dermal fibroblasts in scratch assay, 8 h exposure [2, 3] | Migration of dermal fibroblasts in scratch assay, 8 h exposure [2, 4] | Migration of dermal fibroblasts in scratch assay, 8 h exposure [2, 5] | Migration of dermal fibroblasts in scratch assay, 8 h exposure [2, 6] | Migration of dermal fibroblasts in scratch assay, 96 h exposure [2, 3] | Migration of dermal fibroblasts in scratch assay, 96 h exposure [2, 4] | Migration of dermal fibroblasts in scratch assay, 96 h exposure [2, 5] | Migration of dermal fibroblasts in scratch assay, 96 h exposure [2, 6]
rhCXCL8: recombinant human CXCL8; source not split at this label (migration assay used CXCL8 (6–77) from R&D) | approximately 80% | ~ 40% | 1.29 | 1.35 | 1.63 | 2.13 | 1.13 | 1.58 | 1.46 | 1.64
rhIL-6: recombinant human IL-6; source not split at this label | more than 55% | ~ 40% | 1.22 | 1.38 | 1.91 | 2.25 | 1.7 | 1.23 | 1.5 | 2.03
